In paper PMC12876990, “Targeting secreted PLA2 interactions with EGFR and vimentin to arrest prostate tumour growth” (Cell Death & Disease, 2025):
“Also recorded” adds a separate entry of the source. Square brackets hold non-standard residues; d marks the D form. Peptide text beside a SMILES is read from it. 2Nal = N[C@@H](Cc1ccc2ccccc2c1)C(=O)O

How the values were obtained:
[1] = 28-day repeated dose oral toxicity study (OECD 407): overall toxicity, mortality; format: in vivo, male Sprague Dawley rats
Procedure: Potential toxicity of c2 was evaluated with a 28-day repeated dose oral toxicity study (OECD 407) in male Sprague Dawley rats, with a recovery period. Animals (n = 10 per group) were treated with vehicle (1% carboxymethylcellulose in distilled water), c2 at 1 mg/kg or at 20 mg/kg every three days for 28 days. Animals were sacrificed on day 29 and blood and tissues were taken for further analysis. Two recovery groups treated concomitantly with the main study (n = 5, vehicle of 20 mg/kg c2) were monitored for a further 14-day treatment-free period, sacrificed on Day 43 and blood and tissues taken for analysis. (Data available on request).
2.8.4. Repeated dose toxicity
Repeated do se toxicity is the adver se effects o ccurring within a short time of several repeated administrations of a test item over a defined period.
The test item is the article that is the subject of the study.
Vehicle is any agent, which serves as a carrier used to mix, disperse, or solubilize the test item or reference item to facilitate the administration/application to the test system.
2.9. Principle of the test method
The test item suspension or vehicle was administered orally by gavage every three days for 28 days to three groups of male rat s at two do se le vels (low - 1 and high - 20 mg/kg) to as ses s toxicity. Two vehicle control groups were dosed with the vehicle. A recovery group was included to investigate reversibility of any toxicity and persistence or delayed occurrence of […]
Daily clinical obs ervations were performed. Weekly detailed clinical examination s were performed on all animals. Functional observations were performed in the last week of treatment.
Body weights were monitored weekly throughout the study. Feed intake was measured weekly.
Gross necropsy was conducted in all animals th at died or were killed during the study. Full blood analysis and detailed histopathology was performed on conclusion of the main study.
All tissues and carcasse s were placed in 10% formalin and retained for a period of 6 months. […]
3.1. Regulatory references
The study was conducted according to the OECD Guidelines for the Testing of Chemical s, No.407 - Repeated Dose 28-Day Oral Toxicity Study in Rodents. [Adopted: 3 October […]
3.1.2. Good Laboratory Practice
This study was conducted in accordance with the Organization of Economic Cooperation and Development (OECD) Principles of Good Laboratory Practice (as revised in 1997) ENV/MC/CHEM (98) 17. The study was performed in accordance with the agreed protocol and with ICP Firefly Pty Ltd Standard Operating Procedures (SOPs).
3.1.3. Animal Welfare Act compliance
The experimental protocol was approved by the ICP Firefly Animal Ethics Committee, and […]
Regulation 2005 and the Code of Practice under t hat Regulation. It was granted Approval […]
The Sponsor provided a Certificate of Analysis for the test item, which is attached a s an appendix to the report (Appendix A Certificate of Analysis). […]
3.4.1. Justification for species selection
The Specific Pathogen Free [SPF] male Sprague Dawley rat was selected since it is widely accepted and recognised by international guidelines as an appropriate experimental model […]
3.4.2. Species, strain source and housing
A total of 40 young adult Spe cific Pathogen Fr ee Mal e Sprague D awley rats weighing between 189 and 212 grams the b eginning of the experiment were used for the study. The animals were obtained from Animal Resources Ce ntre (ARC), WA, Australia. […]

[2] = 28-day oral toxicity study: haematology analysis; format: in vivo, male Sprague Dawley rats; settings: for MCHC: calculated value
Procedure: Blood analyse s (haematology and biochemistry) w ere performed on all animals on Day 29 (main groups) or Day 43 (recovery groups). Approximately 4 mL of blood was taken from ea ch animal by cardiac puncture using a 10 mL syringe and 21-gauge needle. The procedure involved anaesthetising by intraperitoneal injection of sodi um pentobarbitone using a 2 mL sterile plastic syringe attached to a 26-gauge needle (Terumo).
For each blood sampling, the blood was divided into two aliquots: (i) one was placed into a tube containing EDTA (for whole blood and EDTA plasma), (ii) one aliquot into a Li-heparin tube.
3.9.1. Haematology analysis
The following parameters were analysed: Red blood cell (RBC), haemoglobin (Hb), haematocrit (Hct), mean corpuscular volume (MCV), mean corpuscular haemoglobin (MCH), mean corpuscular haemoglobin concentration (MCHC), platelet count (PLT), mean platelet volume (MPV), white blood count (WBC), neutrophil (Neut), lymphocyte (Lymph), monocytes (Mono), eosinophil (Eos), basophil (Baso).
Results and methods of analysis were attached in an appendix to the report (Appendix D Haematology and Biochemistry). Blood smear s for cell morphology were prepared. By convention only abnormal findings on smear evaluation were reported. […]
Haematology and Biochemistry). […]
(Appendix C Study Data Spreadsheets). […]

[3] = tested on: PCa cell lines LNCaP, PC-3 and DU145; assay: Cell permeability of c2 by live cell confocal imaging of its autofluorescence; format: cell-based; settings: 100 µM, 24 hours
Procedure: The naphthyl groups in the structure of c2 give the compound a unique autofluorescence emission spectral signature, which was characterised (Fig. S3a, b), allowing the direct imaging of c2 internalisation and localisation. […] Internalisation confirmed via z-stack (Fig. S3c).
For all live cell imaging, cells were seeded on a 24-well glass-bottom Senso plates (Greiner Bio-one) and imaged at 37 °C and 5% CO2 with the LSM 800 (Zeiss). For c2 imaging, cells were incubated with c2 100 µM for 24 hours before excitation with 488 nm and emission 500-700 nm detected. For hGIIA entry, PC-3, LNCaP, DU145 and RA57 hGIIA/AF647 in cells were stained with 30 nM DAPI for 10 mins, cells were washed with PBS and then stained with 1 μg/mL of propidium iodide for 10 mins to confirm cell viability. Cells were washed three times with PBS and then cells were incubated with 200 ng/mL hGIIA/AF647, with entry imaged over 16 hours. Imaging parameters were kept consistent across all time points and cell lines.

[4] = Day 43, Gr 5 recovery, 20 mg/kg

For `CC(C)C[C@@H]1NC(=O)[C@H](Cc2ccc3ccccc3c2)NC(=O)[C@H](CCCNC(=N)N)NC(=O)[C@H](Cc2ccc3ccccc3c2)NC(=O)[C@H](CO)NC1=O` [c2, cyclo-((2-Nal)-Leu-Ser-(2-Nal)-Arg)] (cyclo([2Nal]LS[2Nal]R)), the “effective concentration relative to the maximum observed dosage with no toxicity” value ([1]; 0.1 mg/kg vs 40 mg/kg) was 400 times, the “urinalysis and blood analysis” value ([1]; 1 and 20 mg/kg) was “no test item related effects” and the “toxicity (all measures)” value ([1]; 1 and 20 mg/kg po every three days over 28 days) was “no observable toxicity; also recorded: no toxic effects”. For the same compound, the “mortality related to the treatment” value ([1]; 1 and 20 mg/kg, main and recovery study) was “No mortalities”, the NOAEL at 672 h ([1]; male, Sprague Dawley, rat, in vivo, po, Appendix 1, read-out: maximum observed dosage with no toxicity) was 40 mg/kg and the Hb ([2]; Day 29, Gr 2, 1 mg/kg) was 157 ± 4.7 g/L. For the same compound, the PLT ([2]; Day 29, Gr 2, 1 mg/kg) was 1184 ± 127.7 x 109 / L, the MCHC ([2]; Day 29, Gr 2, 1 mg/kg) was 344 ± 5.1 g/L and the Hb ([2]; Day 29, Gr 3, 20 mg/kg) was 159 ± 3.0 g/L. For the same compound, the PLT ([2]; Day 29, Gr 3, 20 mg/kg) was 1191 ± 93.8 x 109 / L, the MCHC ([2]; Day 29, Gr 3, 20 mg/kg) was 351 ± 4.0 g/L and the blood haematology ([2]; Day 29 and Day 43) was “no obvious test item related effect”. For the same compound, the Baso [2, 4] was 0 L⁻¹, the Hb [2, 4] was 154 ± 1.8 g/L and the PLT [2, 4] was 1182 ± 143.7 x 109 / L. The MCHC [2, 4] was 353 ± 4.2 g/L and the “c2 detection in cells” value [3] was “detected in all cell lines”.
